According to patent US20050054582A1, “Para-amino benzoic acids as integrin antagonists” (priority 2001, published 2005):

Each compound was assayed on adhesion of Ramos cells to VCAM-1 (assay: Adhesion of Ramos cells to immobilized VCAM-1 (domains 1-3)). Conditions: Homo sapiens, Ramos.
Format: cell-based
Text: In Vitro Assay: Adhesion of Ramos Cells to Immobilized VCAM-1 (Domains 1-3) Preparation of VCAM-1 (Extracellular Domains 1-3)
Complementary DNA (cDNA) encoding 7-domain form of VCAM-1 (GenBank accession #M60335) was obtained using Rapid-Screen™ cDNA library panels (OriGene Technologies, Inc) at Takara Gene Analysis Center (Shiga, Japan). The primers used were 5′-CCAAGGCAGAGTACGCAAAC-3′ (sense) and 5′-TGGCAGGTATTATTAAGGAG-3′ (antisense). PCR amplification of the 3-domain VCAM-1 cDNA was perform using Pfu DNA polymerase (Stratagene) with the following sets of primers: (U-VCAMd1-3) 5′-CCATATGGTACCTGATCAATTTAAAATCGAGACCACCCCAGAA-3′; (L-VCAMdl-3) 5-CCATATAGCAATCCTAGGTCCAGGGGAGATCTCAACAGTAAA-3′. PCR cycle was 94° C. for 45 sec, 55° C. for 45 sec, 72° C. for 2 min, repeating 15 cycles. After the purification of the PCR product, the fragment was digested with KpnI-AvrII. The digested fragment was ligated into pBluescript IISK(−) (Strategene), which was linearized by digesting with KpnI-XhoI. The ligation was followed by transformation to a Dam/Dcm methylase-free E. coli strain SCS110 (Strategene) to create the donor plasmid […]. To direct VCAM-1 molecule into the insect cell secretory pathway, the VCAM-1 coding sequence was fused to signal peptide sequence of honeybee melittin. The resulting melittin-VCAM fusion was placed in correct orientation to the baculovirus polyhedrin promoter. Baculovirus transfer vector containing first 3-domain form VCAM-1 (pH10) was constructed by ligation of 0.9 kb fragment from AvrII/Klenow/BclI digests of pH7 into SalI/Klenow/BamHI digests of pMelBacB (Invitrogen). Recombinant baculovirus was generated by using Bac-N-Blue™ Transfection kit (Invitrogen) according to the manufacture's instruction. The recombinant virus was amplified by infection to High-Five™ insect cells for 5-6 days, and virus titer was determined by plaque assay.
High-Five™ insect cells were pelleted in a 225 ml conical tube by centrifugation at 1000 rpm for 5 min. After discarding the supernatant, the pellet was resuspended in 1.5×10^9 pfu (MOI=5) of high-titer virus solution, followed by incubation for 1.5 hours at room temperature. The cells were pelleted again and washed once in fresh Express Five™ serum free medium. The cells were pelleted again and finally, resuspended in 200 ml of fresh Express Five TM medium, transferred to a 1,000 ml shaker flask, and incubated in a shaker at 27° C., 130 rpm, for 48 hours before the culture supernatant was collected. The purification of 3-domain form of VCAM-1 from the culture supernatant was performed by one-step anion exchange chromatography. Protein concentration was determined by using Coomassie protein assay reagent (Pierce) according to the manufacture's instruction.
Preparation of VCAM-1 Coated Microtiter Plates
Recombinant human VCAM-1 (extracellular domains 1-3) was dissolved at 1.0 μg/ml in PBS. Each well of the microtiter plates (Nalge Nunc International, Fluoronunc Cert, 437958) was coated with 100 μl of substrate or for background control with buffer alone for 15 hours at 4 C. After discarding the substrate solution, the wells were blocked using 150 μl per well of block solution (Kirkegaard Perry Laboratories, 50-61-01) for 90 minutes. The plate was washed with wash buffer containing 24 mM Tris-HCl (pH 7.4), 137 mM NaCl, […] and 2 mM MnCl2 just before addition of the assay.
In Vitro Assay using Ramos Cells
Preparation of Fluorescence Labeled Ramos Cells:
Ramos cells (American Type Culture Collection, Clone CRL-1596) were cultured in RPMI 1640 medium (Nikken Bio Medical Laboratory, CM1101) supplemented with 10% fetal bovine serum (Hyclone, A-1119-L), 100 U/ml penicilin (Gibco BRL, 15140-122) and 100 μg/ml streptomycin (Gibco BRL, 15140-122) in a humidified incubator at 37° C. with 5% CO2. […]

Compound	IC50
Cc1ccccc1NC(=O)Nc1ccc(CC(=O)N[C@@H](CCN)C(=O)Nc2ccc(C(=O)O)cc2)cc1 [Example 40, 4-{[(2S)-4-amino-2-({[4-({[(2-methylphenyl)amino]carbonyl}amino)phenyl]acetyl}amino)butanoyl]amino}benzoic acid]	< 0.5 µM
Cc1ccccc1NC(=O)Nc1ccc(CC(=O)N[C@@H](CCCN)C(=O)Nc2ccc(C(=O)O)cc2)cc1 [Example 41, 4-[(N^2-{[4-({[(2-methylphenyl)amino]carbonyl}amino)phenyl]acetyl}-L-ornithyl)amino]benzoic acid]	< 0.5 µM
Cc1ccccc1NC(=O)Nc1ccc(CC(=O)N[C@@H](CC(=O)O)C(=O)Nc2ccc(C(=O)O)cc2)cc1 [Example 42, 4-[(N-{[4-({[(2-methylphenyl)amino]carbonyl}amino)phenyl]acetyl}-L-α-aspartyl)amino]benzoic acid]	< 0.5 µM
Cc1ccccc1NC(=O)Nc1ccc(CC(=O)N[C@@H](Cc2c[nH]c3ccccc23)C(=O)Nc2ccc(C(=O)O)cc2)cc1 [Example 43, 4-[(N-{[4-({[(2-methylphenyl)amino]carbonyl}amino)phenyl]acetyl}-L-tryptophyl)amino]benzoic acid]	< 0.5 µM
Cc1ccccc1NC(=O)Nc1ccc(CC(=O)NC(Cc2ccncc2)C(=O)Nc2ccc(C(=O)O)cc2)cc1 [Example 44, 4-{[N-{[4-(f{[(2-methylphenyl)amino]carbonyl}amino)phenyl]acetyl}-3-(4-pyridinyl)-L-alanyl]amino}benzoic acid]	< 0.5 µM
Cc1ccccc1NC(=O)Nc1ccc(CC(=O)N[C@@H](Cc2cccnc2)C(=O)Nc2ccc(C(=O)O)cc2)cc1 [Example 45, 4-{[N-{[4-({[(2-methylphenyl)amino]carbonyl}amino)phenyl]acetyl}-3-(3-pyridinyl)-L-alanyl]amino}benzoic acid]	< 0.5 µM
Cc1ccccc1NC(=O)Nc1ccc(CC(=O)N[C@@H](Cc2cscn2)C(=O)Nc2ccc(C(=O)O)cc2)cc1 [Example 46, 4-{[N-{[4-({[(2-methylphenyl)amino]carbonyl}amino)phenyl]acetyl}-3-(1,3-thiazol-4-yl)-L-alanyl]amino}benzoic acid]	< 0.5 µM
Cc1ccccc1NC(=O)Nc1ccc(CC(=O)N[C@@H](Cc2cnc[nH]2)C(=O)Nc2ccc(C(=O)O)cc2)cc1 [Example 47, 4-[(N-{[4-({[(2-methylphenyl)amino]carbonyl}amino)phenyl]acetyl}-L-histidyl)amino]benzoic acid]	< 0.5 µM
Cc1ccccc1NC(=O)Nc1ccc(CC(=O)N(CCCN(C)C)CC(=O)Nc2ccc(C(=O)O)cc2)cc1 [Example 56, 4-[(N-[3-(dimethylamino)propyl]-N-{[4-({[(2-methylphenyl)amino]carbonyl}amino)phenyl]acetyl}glycyl)amino]benzoic acid]	< 0.5 µM
Cc1ccccc1NC(=O)Nc1ccc(CC(=O)N(CCCCN)CC(=O)Nc2ccc(C(=O)O)cc2)cc1 [Example 57, 4-[(N-(4-aminobutyl)-N-{[4-({[(2-methylphenyl)amino]carbonyl}amino)-phenyl]acetyl}glycyl)amino]benzoic acid]	< 0.5 µM
Cc1ccccc1NC(=O)Nc1ccc(CC(=O)N(CCCN2CCCC2)CC(=O)Nc2ccc(C(=O)O)cc2)cc1 [Example 58, 4-({N-{[4-({[(2-methylphenyl)amino]carbonyl}amino)phenyl]acetyl}-N-[3-(1-pyrrolidinyl)propyl]glycyl}amino)benzoic acid]	< 0.5 µM
Cc1ccccc1NC(=O)Nc1ccc(CC(=O)N(CCCN2CCN(c3ccccc3)CC2)CC(=O)Nc2ccc(C(=O)O)cc2)cc1 [Example 60, 4-({N-{[4-({[(2-methylphenyl)amino]carbonyl}amino)phenyl]acetyl}-N-[3-(4-phenyl-1-piperazinyl)propyl]glycyl}amino)benzoic acid]	< 0.5 µM
Cc1ccccc1NC(=O)Nc1ccc(CC(=O)N(CC(=O)Nc2ccc(C(=O)O)cc2)CC2CCCO2)cc1 (centres unmarked) [Example 61, 4-{[N-{[4-({[(2-methylphenyl)amino]carbonyl}amino)phenyl]acetyl}-N-(tetrahydro-2-furanylmethyl)glycyl]amino}benzoic acid]	< 0.5 µM
Cc1ccccc1NC(=O)Nc1ccc(CC(=O)N(CC(=O)Nc2ccc(C(=O)O)cc2)CC2CCNCC2)cc1 [Example 62, 4-{[N-{[4-({[(2-methylphenyl)amino]carbonyl}amino)phenyl]acetyl}-N-(4-piperidinylmethyl)glycyl]amino}benzoic acid]	< 0.5 µM
Cc1ccccc1NC(=O)Nc1ccc(CC(=O)N(CC(=O)Nc2ccc(C(=O)O)cc2)CC(C)(C)CN)cc1 [Example 63, 4-[(N-(3-amino-2,2-dimethylpropyl)-N-{[4-({[(2-methylphenyl)amino]-carbonyl}amino)phenyl]acetyl}glycyl)amino]benzoic acid]	< 0.5 µM
CCCN(CC(=O)Nc1ccc(C(=O)O)cc1)C(=O)Cc1ccc(NC(=O)Nc2ccccc2C)cc1 [Example 65, 4-[(N-{[4-({[(2-methylphenyl)amino]carbonyl}amino)phenyl]acetyl}-N-propylglycyl)amino]benzoic acid]	< 0.5 µM
Cc1ccccc1NC(=O)Nc1ccc(CC(=O)N(CCCN2CCCC2=O)CC(=O)Nc2ccc(C(=O)O)cc2)cc1 [Example 66, 4-({N-{[4-({[(2-methylphenyl)amino]carbonyl}amino)phenyl]acetyl}-N-[3-(2-oxo-1-pyrrolidinyl)propyl]glycyl}amino)benzoic acid]	< 0.5 µM
COCCN(CC(=O)Nc1ccc(C(=O)O)cc1)C(=O)Cc1ccc(NC(=O)Nc2ccccc2C)cc1 [Example 67, 4-[(N-(2-methoxyethyl)-N-{[4-({[(2-methylphenyl)amino]carbonyl}amino)-phenyl]acetyl}glycyl)amino]benzoic acid]	< 0.5 µM
Cc1ccccc1NC(=O)Nc1ccc(CC(=O)N(CCCN2CCOCC2)CC(=O)Nc2ccc(C(=O)O)cc2)cc1 [Example 68, 4-({N-{[4-({[(2-methylphenyl)amino]carbonyl}amino)phenyl]acetyl}-N-[3-(4-morpholinyl)propyl]glycyl}amino)benzoic acid]	< 0.5 µM
Cc1ccccc1NC(=O)Nc1ccc(CC(=O)N(CC(=O)Nc2ccc(C(=O)O)cc2)Cc2cccnc2)cc1 [Example 69, 4-{[N-{[4-({[(2-methylphenyl)amino]carbonyl}amino)phenyl]acetyl}-N-(3-pyridinylmethyl)glycyl]amino}benzoic acid]	< 0.5 µM
Cc1ccccc1NC(=O)Nc1ccc(CC(=O)N(CC(=O)Nc2ccc(C(=O)O)cc2)Cc2ccccn2)cc1 [Example 70, 4-{[N-{[4-({[(2-methylphenyl)amino]carbonyl}amino)phenyl]acetyl}-N-(2-pyridinylmethyl)glycyl]amino}benzoic acid]	< 0.5 µM

Same assay, conditions: Homo sapiens; observed IC50 value ranges; Table 4 does not say whether Ramos-VCAM-1 or Jurkat-VCAM-1; read-out: IC50

Compound	IC50
CCN1CCCC1CN(CC(=O)Nc1ccc(C(=O)O)cc1)C(=O)Cc1ccc(NC(=O)Nc2ccccc2C)cc1 (centres unmarked) [Example 59, 4-[(N-[(1-ethyl-2-pyrrolidinyl)methyl]-N-{[4-({[(2-methylphenyl)amino]-carbonyl}amino)phenyl]acetyl}glycyl)amino]benzoic acid]	< 0.5 µM
Cc1ccccc1NC(=O)Nc1ccc(CC(=O)N(CCN2CCCC2)CC(=O)Nc2ccc(C(=O)O)cc2)cc1 [Example 64, 4-({N-{[4-({[(2-methylphenyl)amino]carbonyl}amino)phenyl]acetyl}-N-[2-(1-pyrrolidinyl)ethyl]glycyl}amino)benzoic acid]	< 0.5 µM
